Drawing on US9108921B2, “Therapeutic compounds and compositions” (AGIOS PHARMACEUTICALS, INC, priority 2014, dated 2015), this text covers AC50 for 11 molecules.

The target of assay [1] is T1, PKR WT (Homo sapiens, UniProt P30613). As to the kind of experiment: PKR WT enzymatic AC50 assay. In kind it is biochemical. The settings on record: wild type PKR. The method in brief:
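Steps: compound added to wells, then reaction mix lacking ADP; 60 min room-temperature hold; ADP (0.22-1.65 mM) added to start; A340 monitored at room temperature via PEP/LDH/NADH coupling. Top final compound concentration 100 μM, 3-fold dilutions over 11 points.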

Assay [2] deals with PKR R532W (Homo sapiens, UniProt P30613, R532W). In words: PKR Mutant Assay, AC50 against PKR R532W. Format: biochemical. Particulars: mutant PKR R532W enzyme. The method in brief:
(§1)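 Human PKR (WT or mutant, 80-400 ng/well) in 50 mM Tris pH 7.5, 100 mM KCl, 5 mM MgCl2, 1 mM DTT, 0.03% BSA with PEP 0.1-0.5 mM, NADH 180 uM and LDH, preincubated 60 min at room temperature with compound (11-point 3-fold series from 100 μM final, 1% DMSO). ADP 0.22-1.65 mM started reaction; A340 followed.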

The target of assay [3] is PKR R510Q (Homo sapiens, UniProt P30613, R510Q). As to the kind of experiment: PKR Mutant Assay, AC50 against PKR R510Q. Particulars: mutant PKR R510Q enzyme. In kind it is biochemical. The gist of the method: as §1
Chain of PKR R510Q (P30613 whole entry R510Q): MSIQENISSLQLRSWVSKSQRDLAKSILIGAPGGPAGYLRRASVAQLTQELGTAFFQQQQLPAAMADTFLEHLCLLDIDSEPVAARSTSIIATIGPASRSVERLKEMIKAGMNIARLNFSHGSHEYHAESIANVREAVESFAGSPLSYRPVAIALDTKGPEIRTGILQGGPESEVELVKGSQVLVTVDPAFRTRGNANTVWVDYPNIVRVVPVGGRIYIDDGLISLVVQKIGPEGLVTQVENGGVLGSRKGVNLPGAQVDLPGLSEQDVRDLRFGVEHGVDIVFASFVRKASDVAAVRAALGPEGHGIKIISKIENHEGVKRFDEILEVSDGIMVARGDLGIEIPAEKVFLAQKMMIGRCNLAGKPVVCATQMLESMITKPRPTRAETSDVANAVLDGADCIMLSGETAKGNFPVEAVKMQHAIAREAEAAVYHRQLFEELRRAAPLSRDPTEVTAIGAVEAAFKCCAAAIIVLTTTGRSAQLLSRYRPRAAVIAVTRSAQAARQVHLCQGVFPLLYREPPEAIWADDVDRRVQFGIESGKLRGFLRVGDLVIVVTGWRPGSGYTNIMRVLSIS
The target of assay [4] is T1, PKR WT. In words: PKR WT cell based AC50 assay. The settings on record: wild type PKR.

T1 sequence (P30613 whole entry): as the sequence (P30613 whole entry R510Q) above, with Q510R counted along it
Chain of PKR R532W (P30613 whole entry R532W): as the sequence (P30613 whole entry R510Q) above, with Q510R, R532W counted along it

Broadly, the AC50 is the midpoint of the concentration-response curve, whichever way the signal moves. Low values mean activity at low concentration, high ones activity only at high concentration. Regarding `O=C(c1ccc(NS(=O)(=O)c2cccc3c(O)ncnc23)cc1)N1CCC(O)(c2cccc(F)c2F)CC1` [Compound 428], the AC50 in assay [1] was less than 100 nM; in assay [2] it was less than 100 nM; in assay [3], 101 to 1000 nM; in assay [4], less than 100 nM.

In the case of `CC(CC1(O)CCN(C(=O)c2ccc(NS(=O)(=O)c3cccc4sc(N)nc34)cc2)CC1)C(F)(F)F` (centres unmarked) [Compound 429], the AC50 in assay [1], in assay [2], in assay [3] and in assay [4] was less than 100 nM each time.

As for `Nc1nc2c(S(=O)(=O)Nc3ccc(C(=O)N4CCC(O)(CCC(F)(F)F)CC4)cc3)cccc2s1` [Compound 430], the AC50 in assay [1] is less than 100 nM; in assay [2], less than 100 nM; in assay [3], 101 to 1000 nM; in assay [4], 101 to 1000 nM.

On to `CC(CC1(O)CCN(C(=O)c2ccc(NS(=O)(=O)c3cccc4c(O)ncnc34)cc2)CC1)C(F)(F)F` (centres unmarked) [Compound 431], for which the AC50 is less than 100 nM in assay [1], less than 100 nM in assay [2], less than 100 nM in assay [3] and 101 to 1000 nM in assay [4].

For `O=C(c1ccc(NS(=O)(=O)c2cccc3scnc23)cc1)N1CCC(O)(CC2CC2(F)F)CC1` (centres unmarked) [Compound 432], the AC50 was less than 100 nM in assay [1], less than 100 nM in assay [2], 101 to 1000 nM in assay [3] and 101 to 1000 nM in assay [4].

For `Cn1nccc1CC1(O)CCN(C(=O)c2ccc(NS(=O)(=O)c3cccc4scnc34)cc2)CC1` [Compound 433], the AC50 in assay [1] was 101 to 1000 nM; in assay [2] it was less than 100 nM; in assay [3], 101 to 1000 nM; in assay [4], 101 to 1000 nM.

Turning to `Cn1cc(CC2(O)CCN(C(=O)c3ccc(NS(=O)(=O)c4cccc5scnc45)cc3)CC2)cn1` [Compound 434], the AC50 in assay [1] is 101 to 1000 nM; in assay [2], less than 100 nM; in assay [3], 101 to 1000 nM; in assay [4], 101 to 1000 nM.

Regarding `CC(F)(F)CCC1(O)CCN(C(=O)c2ccc(NS(=O)(=O)c3cc(F)cc4sc(N)nc34)cc2)CC1` [Compound 435], the AC50 in assay [1] is less than 100 nM; in assay [2] it was less than 100 nM; in assay [3], less than 100 nM; in assay [4], 101 to 1000 nM.

On to `CC(F)(F)CCC1(O)CCN(C(=O)c2ccc(NS(=O)(=O)c3cccc4nccnc34)cc2OC(F)F)CC1` [Compound 436], for which the AC50 in assay [1] is 101 to 1000 nM; in assay [2] it was less than 100 nM; in assay [3], 101 to 1000 nM; in assay [4], 101 to 1000 nM.

As for `CC(C)CC1(O)CCN(C(=O)c2ccc(NS(=O)(=O)c3cccc4ncc(N)nc34)cc2)CC1` [Compound 437], the AC50 in assay [1], in assay [2], in assay [3] and in assay [4] was less than 100 nM throughout.

Regarding `CC(C)CC1(O)CCN(C(=O)c2ccc(NS(=O)(=O)c3cccc4nc(N)cnc34)cc2)CC1` [Compound 439], the AC50 in assay [1], in assay [2], in assay [3] and in assay [4] was less than 100 nM each time.
